These results are taken from patent publication US20230109489A1, “Compound and Use Thereof” (FELIQS CORPORATION, priority 2020, published 2023).

Experiment [1] in a line: LO. scavenging ability, liposome-Fe2+ system (Fe stimulation), NBD-TEEPO fluorescence. The note with it: for R/L: ratio of activity value (R) of LO. scavenging ability to activity value (L) of LOO. scavenging ability / Fe stimulation (R): activity value of LO. scavenging ability: test compound 10 μmol/l; for Fe stimulation (R): activity value of LO. scavenging ability: FeSO4 1.0 mmol/l, liposomes, 37° C., 180 minutes, 1−(AUCSample/AUCControl). The experiment is classed as biochemical. The source says: As described above, the compound of the present invention has alkoxyl radical scavenging ability. The “alkoxyl radical scavenging ability” in the present invention means the ability to scavenge LO., for example. The LO. scavenging ability can be evaluated on the basis of its activity value, for example. The activity value of the LO. scavenging ability can be evaluated, for example, using the liposome-Fe^2+ system disclosed in WO 2019/009355. More specifically, it can be measured in a manner described in Example 1 below. As a specific example, the activity value of the LO. scavenging ability can be measured by performing the following steps (i) to (v): • (i) preparing a buffer solution containing a compound represented by the formula (A) and liposomes; • (ii) adding a divalent iron ion source material; • (iii) adding a test compound; • […] measuring a fluorescence; and • (v) determining the activity value of the test compound as per the following equation using the result of the fluorescence measurement.
Activity value of LO. scavenging ability=1−(AUCSample/AUCControl)
AUCSample: the area under the curve calculated from the fluorescence intensity measured in the presence of Fe^2+ and the test compound (n=1)
AUCControl: the area under the curve calculated from the fluorescence intensity measured in the presence of Fe^2+ and in the absence of the test compound
In step (i), the concentration of the compound represented by the formula (A) is, for example, 1 to 20 μmol/l and typically 5 μmol/l. The liposomes are prepared from, for example, egg-yolk phosphatidylcholine (Egg PC) and dihexadecyl hydrogen phosphate (DCP). The concentration of the egg-yolk phosphatidylcholine is, for example, 5 to 10 mg/ml and typically […]. The concentration of the dihexadecyl hydrogen phosphate is, for example, 0.01 to 1 mg/ml and typically 0.1 mg/ml.
In step (ii), the concentration of the divalent iron ion source material is, for example, 0.5 to 5 mmol/l and typically 1 mmol/l. The divalent iron ion source material is, for example, iron(II) sulfate.
In step (iii), the concentration of the test compound is 5 to 100 μmol/l. A specific example of the concentration is 10 μmol/l.
In step (iv), the wavelength of excitation light at the time of measuring the fluorescence can be set to, for example, 470 nm; the fluorescence wavelength can be set to, for example, 530 nm; and the fluorescence intensity at 530 nm can be measured. The period for measuring the fluorescence is, for example, from 0 to 240 minutes at intervals of 0.1 to 5 minutes and typically 180 minutes at intervals of 3 minutes, with step (iii) being the start time, for example.
The following solutions were prepared: a solution A containing liposomes (10 mg/ml Egg PC, 0.4 mg/ml DCP) and 20 μmol/l NBD-TEEPO compound (compound represented by the formula (A)) in phosphate buffer (10 mmol/l, pH 7.4, 2.0% acetonitrile); and a solution B containing 4.0 mmol/l FeSO4 in distilled water. A 10 μl aliquot of each of the solutions A and B was dispensed using a Multidrop Combi (Thermo Fisher Scientific), and these aliquots were mixed together. The final concentrations of the respective components in the phosphate buffer (10 mmol/l, pH 7.4, 0.5% acetonitrile, 1% dimethyl sulfoxide (DMSO)) were as follows: the liposomes (2.5 mg/ml Egg PC, 0.1 mg/ml DCP), the NBD-TEEPO compound (5.0 μmol/l), a test compound (10 μmol/l), and FeSO4 (1.0 mmol/l). As the test compound, the compounds represented by the formulae (3) to (5) and (7) to (10) were used as compounds of examples, the compound (methyldopa) represented by the formula (1a) was used as a compound of a comparative example, and edaravone and a SCREEN-WELL® FDA-approved drug library (Enzo Life Sciences) were used as reference examples. The test compounds were dissolved in DMSO. […]

Experiment [2] is described as follows: LOO. scavenging ability, liposome-AAPH system (AAPH stimulation), NBD-TEEPO fluorescence. It counts as biochemical. The arrangement: key: activity = 1 − (FluSample−FluBackground)/(FluControl−FluBackground). To be noted: test compound 10 μmol/l, AAPH 20 mmol/l, liposomes, 37° C., after 40 minutes. From the text: As described above, the compound of the present invention has peroxyl radical scavenging ability. “Peroxyl radical scavenging ability” in the present invention means the ability to scavenge LOO., for example. The LOO. scavenging ability can be evaluated on the basis of its activity value, for example. The activity value of the LOO. scavenging ability can be evaluated using, for example, the liposome-AAPH (2,2′-azobis(2-amidinopropane)dihydrochloride) system disclosed in WO 2019/009355. More specifically, it can be measured in a manner described in Example 1 below. As a specific example, the activity value of the LOO. scavenging ability can be measured by performing the following steps (vi) to (x): • (vi) preparing a buffer solution containing a compound represented by the formula (A) and liposomes; • (vii) adding 2,2′-azobis(2-amidinopropane)dihydrochloride; • (viii) adding a test compound; • […] measuring a fluorescence; and • (x) determining the activity value of the test compound as per the following equation using the result of the fluorescence measurement.
Activity value of LOO. scavenging ability=1−(FluSample−FluBackground)/(FluControl−FluBackground)
Flusampie: the fluorescence intensity measured in the presence of AAPH and the test compound (n=1)
FluBackground: the fluorescence intensity measured in the absence of AAPH
FluControl: the fluorescence intensity measured in the presence of AAPH and in the absence of the test compound
In step (vi), the concentration of the compound represented by the formula (A) is, for example, 1 to 20 μmol/l and typically 5 μmol/l. The liposomes are prepared from, for example, egg-yolk phosphatidylcholine and dihexadecyl hydrogen phosphate. The concentration of the egg-yolk phosphatidylcholine is, for example, 5 to 10 mg/ml and typically 2.5 mg/ml. The concentration of the dihexadecyl hydrogen phosphate is, for example, 0.01 to 1 mg/ml and typically 0.1 mg/ml.
In step (vii), the concentration of AAPH is, for example, 5 to 50 mmol/l and typically 20 mmol/l.
In step (viii), the concentration of the test compound is 5 to 100 μmol/l. A specific example of the concentration is 10 μmol/l.
In step (ix), the wavelength of excitation light at the time of measuring the fluorescence can be set to, for example, 470 nm; the fluorescence wavelength can be set to, for example, 530 nm; and the fluorescence intensity at 530 nm can be measured. The measurement of the fluorescence is performed, for example, after 1 to 120 minutes has elapsed and typically after 30 to 40 minutes has elapsed since step (viii).
The following solutions were prepared: a solution A containing liposomes (10 mg/ml Egg PC, 0.4 mg/ml DCP) and NBD-TEEPO compound (20 μmol/l) in phosphate buffer (10 mmol/l, pH 7.4, 2.0% acetonitrile); and a solution B containing 80 mmol/l AAPH in phosphate buffer (10 mmol/l, pH 7.4). A 10 μl aliquot of each of the solutions A and B was dispensed using a Multidrop Combi, and these aliquots were mixed together. The final concentrations of the respective components in the phosphate buffer (10 mmol/l, pH 7.4, 0.5% acetonitrile, 1% DMSO) were as follows: the liposomes (2.5 mg/ml Egg PC, 0.1 mg/ml DCP), the NBD-TEEPO compound (5.0 μmol/l), each of the test compounds (10 μmol/l), and AAPH (20 mmol/l).
While incubating the thus-obtained mixture at 37° C., the fluorescence intensity was measured after 40 minutes had elapsed since the mixing of the components. The fluorescence intensity was measured at an excitation wavelength of 470 nm and a fluorescence wavelength of 530 nm. Then, on the basis of the thus-measured fluorescence intensities, the activity value of the LOO. scavenging ability was calculated as per the above-described equation.

Consider `CCOC(=O)[C@@](C)(N)Cc1ccc(O)c(O)c1` [(10)], for which, in experiment [1], the “R/L: ratio of activity value (R) of LO. scavenging ability to activity value (L) of LOO. scavenging ability” value (“R/L: ratio of activity value” for short) is given as 0.78 and the “Fe stimulation (R): activity value of LO. scavenging ability” value (shortened to “Fe stimulation (R): activity value”) was determined as 0.517. For the same compound, in experiment [2], the “AAPH stimulation (L): activity value of LOO. scavenging ability” value (“AAPH stimulation (L): activity value” for short) was 0.663.
Regarding `CC1=NN(c2ccccc2)C(=O)C1` [Edaravone, 5-methyl-2-phenyl-2,4-dihydro-3H-pyrazol-3-one, reference compound], in experiment [1], the “balance between the LO. scavenging ability and the LOO. scavenging ability (result in words)” value is “approximately the same level of scavenging ability against LO. and LOO”; the “R/L: ratio of activity value” value is given as 0.98; the “Fe stimulation (R): activity value” value is 0.288. The “AAPH stimulation (L): activity value” value in experiment [2] amounted to 0.293.
`CCC(C)OC(=O)[C@@](C)(N)Cc1ccc(O)c(O)c1` (stereo partly drawn) [Formula (3), s-butyl (2S)-2-amino-3-(3,4-dihydroxyphenyl)-2-methylpropanoate]: in experiment [1], the “R/L: ratio of activity value” value turned out to be 1.04 and the “Fe stimulation (R): activity value” value is recorded as 0.754. Further, in experiment [2], the “AAPH stimulation (L): activity value” value is recorded as 0.726.
Regarding `CC(C)(C)OC(=O)[C@@](C)(N)Cc1ccc(O)c(O)c1` [Formula (4), t-butyl (S)-2-amino-3-(3,4-dihydroxyphenyl)-2-methylpropanoate], in experiment [1], the “R/L: ratio of activity value” value is 1.07 and the “Fe stimulation (R): activity value” value is 0.654. Further, the “AAPH stimulation (L): activity value” value in experiment [2] is given as 0.610.
As to `CC(C)COC(=O)[C@@](C)(N)Cc1ccc(O)c(O)c1` [Formula (5), isobutyl (S)-2-amino-3-(3,4-dihydroxyphenyl)-2-methylpropanoate], in experiment [1], the “R/L: ratio of activity value” value is 1.19 and the “Fe stimulation (R): activity value” value is 0.539. The “AAPH stimulation (L): activity value” value in experiment [2] came out at 0.452.
Consider `CCCOC(=O)[C@@](C)(N)Cc1ccc(O)c(O)c1` [Formula (7), propyl (S)-2-amino-3-(3,4-dihydroxyphenyl)-2-methylpropanoate], for which, in experiment [1], the “R/L: ratio of activity value” value was 0.88 and the “Fe stimulation (R): activity value” value came out at 0.454. In experiment [2], the “AAPH stimulation (L): activity value” value worked out at 0.517.
As to `CC(C)OC(=O)[C@@](C)(N)Cc1ccc(O)c(O)c1` [Formula (8), isopropyl (S)-2-amino-3-(3,4-dihydroxyphenyl)-2-methylpropanoate], in experiment [1], the “R/L: ratio of activity value” value turned out to be 0.95 and the “Fe stimulation (R): activity value” value is reported as 0.327. For the same compound, the “AAPH stimulation (L): activity value” value in experiment [2] is 0.346.
For the compound `CCCCOC(=O)[C@@](C)(N)Cc1ccc(O)c(O)c1` [Formula (9), butyl (S)-2-amino-3-(3,4-dihydroxyphenyl)-2-methylpropanoate], in experiment [1], the “R/L: ratio of activity value” value stood at 1.04 and the “Fe stimulation (R): activity value” value worked out at 0.313. Besides, the “AAPH stimulation (L): activity value” value in experiment [2] came out at 0.301.
